A word on the melting point: it is the temperature of the solid-liquid transition.

Data on 25 molecules can be found in patent publication US7718808B2, “Thiazole derivatives” (Kyowa Hakko Kirin Co., Ltd., priority 2003, dated 2010).

Each structure is given as a SMILES string.

With `COc1ccc(C(=O)Nc2nc(-c3ccco3)c(C(=O)C3CCOCC3)s2)c(OC)c1` [Compound 484, N-[4-(2-Furyl)-5-(tetrahydropyran-4-ylcarbonyl)thiazol-2-yl]-2,4-dimethoxybenzamide], the melting point was 219 to 222 °C.

`COc1ccc(OC)c(C(=O)Nc2nc(-c3ccco3)c(C(=O)C3CCOCC3)s2)c1` [Compound 485, N-[4-(2-Furyl)-5-(tetrahydropyran-4-ylcarbonyl)thiazol-2-yl]-2,5-dimethoxybenzamide] had a melting point of 107 to 110 °C.

Consider `COc1cccc(OC)c1C(=O)Nc1nc(-c2ccco2)c(C(=O)C2CCOCC2)s1` [Compound 486, N-[4-(2-Furyl)-5-(tetrahydropyran-4-ylcarbonyl)thiazol-2-yl]-2,6-dimethoxybenzamide], for which the melting point fell in the range of 152 to 156 °C.

Regarding `COc1ccc(C(=O)Nc2nc(-c3ccco3)c(C(=O)C3CCOCC3)s2)cc1OC` [Compound 487, N-[4-(2-Furyl)-5-(tetrahydropyran-4-ylcarbonyl)thiazol-2-yl]-3,4-dimethoxybenzamide], the melting point was in the range of 289 to 292 °C.

In turn, `COc1cc(OC)cc(C(=O)Nc2nc(-c3ccco3)c(C(=O)C3CCOCC3)s2)c1` [Compound 488, N-[4-(2-Furyl)-5-(tetrahydropyran-4-ylcarbonyl)thiazol-2-yl]-3,5-dimethoxybenzamide] yielded a melting point of 278 to 280 °C.

Turning to `O=C(Nc1nc(-c2ccco2)c(C(=O)C2CCOCC2)s1)c1cccc(F)c1F` [Compound 489, 2,3-Difluoro-N-[4-(2-furyl)-5-(tetrahydropyran-4-ylcarbonyl)thiazol-2-yl]benzamide], the melting point is 154 to 160 °C.

Molecule `O=C(Nc1nc(-c2ccco2)c(C(=O)C2CCOCC2)s1)c1ccc(F)cc1F` [Compound 490, 2,4-Difluoro-N-[4-(2-furyl)-5-(tetrahydropyran-4-ylcarbonyl)thiazol-2-yl]benzamide] returned a melting point of 213 to 215 °C.

As to `O=C(Nc1nc(-c2ccco2)c(C(=O)C2CCOCC2)s1)c1cc(F)ccc1F` [Compound 491, 2,5-Difluoro-N-[4-(2-furyl)-5-(tetrahydropyran-4-ylcarbonyl)thiazol-2-yl]benzamide], the melting point lay in the range of 172 to 174 °C.

As to `O=C(Nc1nc(-c2ccco2)c(C(=O)C2CCOCC2)s1)c1c(F)cccc1F` [Compound 492, 2,6-Difluoro-N-[4-(2-furyl)-5-(tetrahydropyran-4-ylcarbonyl)thiazol-2-yl]benzamide], the melting point is 168 to 170 °C.

For `O=C(Nc1nc(-c2ccco2)c(C(=O)C2CCOCC2)s1)c1ccc(F)c(F)c1` [Compound 493, 3,4-Difluoro-N-[4-(2-furyl)-5-(tetrahydropyran-4-ylcarbonyl)thiazol-2-yl]benzamide], the melting point was in the range of 208 to 210 °C.

With `O=C(Nc1nc(-c2ccco2)c(C(=O)C2CCOCC2)s1)c1cc(F)cc(F)c1` [Compound 494, 3,5-Difluoro-N-[4-(2-furyl)-5-(tetrahydropyran-4-ylcarbonyl)thiazol-2-yl]benzamide], the melting point is 259 to 265 °C.

For the molecule `O=C(Nc1nc(-c2ccco2)c(C(=O)C2CCOCC2)s1)c1cccc2c1OCCO2` [Compound 495, N-[4-(2-Furyl)-5-(tetrahydropyran-4-ylcarbonyl)thiazol-2-yl]-1,4-benzodioxane-5-carboxamide], the melting point fell in the range of 188 to 190 °C.

`O=C(Nc1nc(-c2ccco2)c(C(=O)C2CCOCC2)s1)c1ccc2c(c1)OCO2` [Compound 496, N-[4-(2-Furyl)-5-(tetrahydropyran-4-ylcarbonyl)thiazol-2-yl]-1,3-benzodioxole-5-carboxamide] had a melting point of 194 to 196 °C.

Molecule `O=C(Nc1nc(-c2ccco2)c(C(=O)C2CCOCC2)s1)c1cccc2c1OC(F)(F)O2` [Compound 497, 2,2-Difluoro-N-[4-(2-furyl)-5-(tetrahydropyran-4-ylcarbonyl)thiazol-2-yl]-1,3-benzodioxole-4-carboxamide] returned a melting point of 206 to 207 °C.

In turn, `O=C(Nc1nc(-c2ccco2)c(C(=O)C2CCOCC2)s1)c1ccc2c(c1)OC(F)(F)O2` [Compound 498, 2,2-Difluoro-N-[4-(2-furyl)-5-(tetrahydropyran-4-ylcarbonyl)thiazol-2-yl]-1,3-benzodioxole-5-carboxamide] registered a melting point of 124 to 129 °C.

`O=C(Nc1nc(-c2ccco2)c(C(=O)C2CCOCC2)s1)c1ccnc(Cl)c1` [Compound 499, 2-Chloro-N-(4-(2-furyl)-5-(tetrahydropyran-4-ylcarbonyl)thiazol-2-yl]pyridine-4-carboxamide] registered a melting point of 185 to 186 °C.

Regarding `Cc1cc(C(=O)Nc2nc(-c3ccco3)c(C(=O)C3CCOCC3)s2)ccn1` [Compound 500, N-[4-(2-Furyl)-5-(tetrahydropyran-4-ylcarbonyl)thiazol-2-yl]-2-methylpyridine-4-carboxamide], the melting point is 169 to 173 °C.

`O=C(Nc1nc(-c2ccco2)c(C(=O)C2CCOCC2)s1)c1cccnc1` [Compound 501, N-[4-(2-Furyl)-5-(tetrahydropyran-4-ylcarbonyl)thiazol-2-yl]pyridine-3-carboxamide] gave a melting point of 209 to 212 °C.

`O=C(Nc1nc(-c2ccco2)c(C(=O)C2CCOCC2)s1)c1ccc(N2CCOCC2)nc1` [Compound 503, N-[4-(2-Furyl)-5-(tetrahydropyran-4-ylcarbonyl)thiazol-2-yl]-2-morpholinopyridine-5-carboxamide] yielded a melting point of 166 to 170 °C.

In the case of `O=C(Nc1nc(-c2ccco2)c(C(=O)C2CCOCC2)s1)c1ccc(C(F)(F)F)nc1` [Compound 505, N-[4-(2-Furyl)-5-(tetrahydropyran-4-ylcarbonyl)thiazol-2-yl]-2-(trifluoromethyl)pyridine-5-carboxamide], the melting point lay in the range of 217 to 222 °C.

In turn, `Cc1cncc(C(=O)Nc2nc(-c3ccco3)c(C(=O)C3CCOCC3)s2)c1` [Compound 506, N-[4-(2-Furyl)-5-(tetrahydropyran-4-ylcarbonyl)thiazol-2-yl]-5-methylpyridine-3-carboxamide] yielded a melting point of 239 to 243 °C.

With `O=C(Nc1nc(-c2ccco2)c(C(=O)C2CCOCC2)s1)c1ccccn1` [Compound 507, N-[4-(2-Furyl)-5-(tetrahydropyran-4-ylcarbonyl)thiazol-2-yl]pyridine-2-carboxamide], the melting point is 185 to 186 °C.

Molecule `O=C(Nc1nc(-c2ccco2)c(C(=O)C2CCOCC2)s1)c1cnccn1` [Compound 509, N-[4-(2-Furyl)-5-(tetrahydropyran-4-ylcarbonyl)thiazol-2-yl]pyrazine-2-carboxamide] gave a melting point of 200 to 205 °C.

With `Cc1cnc(C(=O)Nc2nc(-c3ccco3)c(C(=O)C3CCOCC3)s2)cn1` [Compound 510, N-[4-(2-Furyl)-5-(tetrahydropyran-4-ylcarbonyl)thiazol-2-yl]-5-methylpyrazine-2-carboxamide], the melting point is 130 to 131 °C.

Take `Cc1ccc(C(=O)Nc2nc(-c3ccco3)c(C(=O)C3CCOCC3)s2)o1` [Compound 512, N-[4-(2-Furyl)-5-(tetrahydropyran-4-ylcarbonyl)thiazol-2-yl]-5-methylfuran-2-carboxamide]: the melting point fell in the range of 209 to 212 °C.
